{
  "source": "patent US20150259371A1",
  "about": "“METHODS AND COMPOUNDS FOR INHIBITING GLYCOSYLTRANSFERASES” (SIMON FRASER UNIVERSITY, priority 2010, published 2015)",
  "key": {"[1]": {"test_system": "EMEG32 heterozygous mouse embryonic fibroblast cells", "test": "Cell proliferation growth curves over 5 days and western blot, EMEG32 heterozygous fibroblasts", "assay_type": "cell-based", "details": "50 μM, 5 days", "protocol": "(A) Cell proliferation curves over the course of 5 days for CHO cells following no (circles), 50 μM Ac-GlcNAc (squares) or 50 μM Ac-5SGlcNAc (triangles) treatment. The error bars indicate the deviation from the mean for triplicate measurements. […] Upper panel, probed with anti-O-GlcNAc antibody (CTD110.6); lower panel, probed with anti-actin antibody. (B) Cell proliferation curves over the course of 5 days for EMEG heterozygous mouse embryonic fibroblast cells following no (circles), 50 μM Ac-GlcNAc (squares) or 50 μM Ac-5SGlcNAc (triangles) treatment. The error bars indicate the deviation from the mean for triplicate measurements. […] Upper panel, probed with anti-O-GlcNAc antibody (CTD110.6); lower panel, probed with anti-actin antibody. (C) Western blots of CHO cell lysates following no (C) or Ac-5SGlcNAc administration at 50 μM for 4 days. Probed with (from top to bottom) anti-Spl antibody, anti O-GlcNAc (CTD110.6) antibody and anti-actin antibody. Full blot of the anti-Sp 1 is shown in panel (d). (D) Western blots of CHO cell lysates following no (C) or Ac-5SGlcNAc administration at 50 μM for 4 days. The full blot probed with anti-Spl antibody is shown. (E) Western blots of COS-7 cell lysates following no (C) or 50 μM Ac-5SGlcNAc treatment for 24 h. Following treatment, the media was replaced with no inhibitor, and cells were harvested at the time points indicated (between 0 and 24 h). Upper panel, probed with anti-O-GlcNAc antibody (CTD110.6); lower panel, probed with anti-actin antibody.\nCellular responses to Ac-5SGlcNAc (9) treatment and consequent decreases in O-GlcNAc levels were evaluated. […] We quantitatively evaluated cell proliferation and established growth curves over the course of 5 days in both CHO and EMEG32 heterozygous mouse embryonic fibroblast cells treated with 50 μM Ac-5SGlcNAc (9), 50 μM Ac-GlcNAc (G), or vehicle (FIGS. 5A-B)."}, "[2]": {"test_system": "Primary CLL cells", "test": "Primary CLL cells, proliferation and toxicity with or without cytokine stimulation", "assay_type": "cell-based", "details": "5 days", "protocol": "Primary CLL cells, obtained from Dr. David Spaner at the University of Toronto, were tested for their response to Ac-5SGlcNAc (9). Cells were plated at a confluency of 1 million cells/mL, and treated with between 0-250 μM 9, in the presence or absence of cytokine (1000 U/mL IL-2 and 1 μg/mL Resiquimod) stimulation to mimic cancer progression. Cells were observed over the course of 5 days, and harvested after this time into SDS-PAGE loading buffer before being subjected to western blotting."}, "[3]": {"test_system": "OGA", "test": "Western blot of OGA levels in treated COS-7 cells", "assay_type": "cell-based, African green monkey", "details": "50 μM, 24 h", "protocol": "Westernlectin blots: Samples were run on 10% SDS polyacrylamide gels and transferred onto nitrocellulose membranes (Biorad). Membranes were blocked for 1 h in PBS containing 0.1% Tween-20 (PBS-T) containing 1% (unless otherwise stated) bovine serum albumin (BSA), and probed with the appropriate primary antibody or lectin in 1% BSA in PBS-T overnight at 4° C. Blots were washed for 1 hr with PBS-T, and blocked for a further 30 min with 1% BSA in PBS-T at room temperature. They were then probed with the appropriate horseradish peroxidise (HRP)-conjugated secondary antibodyprobe in 1% BSA in PBS-T at room temperature for 1 h, followed by washing in PBS-T for 1 h. Blots were developed with SuperSignal West Pico Chemiluminescent Substrate (Pierce) and exposed to CL-XPosure film (Pierce). Densitometry was performed using ImageQuant 5.2 (Molecular Dynamics), and fits to the data were made using GRAFIT^41.\nAntibodieslectins: O-GlcNAc levels were assessed primarily using CTD110.6 (Covance), but RL2 (Abcam) and HGAC85 (Abcam) were also tested. Actin was probed using JLA20 (Developmental Studies Hybridoma Bank). OGA levels were assessed using a polyclonal anti-OGA antibody which was a kind gift from Dr. Gerald Hart and OGT levels using H-300 (Santa Cruz Biotechnology). nup62 was probed using mAb 414 (Covance). […]"}, "[4]": {"test_system": "O-GlcNAc on nup62", "test": "O-GlcNAc on nup62 immunoprecipitated from treated cells, chemoenzymatic labelling", "assay_type": "cell-based", "details": "250 μM, 24 h; streptavidin probe", "protocol": "Immunoprecipitation of nup62: nup62 was immunoprecipitated from COS-7 cell lysates using the procedure described in Ref.^9. Following washing of the beads, and prior to elution, nup62 was incubated in the absence or presence of BtGH84 (overexpressed and purified as described previously^43) shaking for 2 h at room temperature, which would allow O-GlcNAc levels on nup62 to be assessed. nup62 was subsequently eluted from the beads upon addition of SDS loading buffer and boiled for 10 min.\nClick-iT® kit for labelling O-GlcNAc residues: The ‘Click-iT® O-GlcNAc Enzymatic Labeling System’ was purchased from Invitrogen, and essentially the manufacturer's protocol was followed with some alterations. nup62 was immunoprecipitated and eluted from the beads in 1% SDS in 20 mM Hepes, pH 7.9, and boiled for 10 min; this was used as the substrate for the chemoenzymatic labeling using UDP-GalNAz and GalTl. Following the overnight reaction, biotinylated phosphine (in 20% DMF) was added at a final concentration of 50 μM and incubated at 37° C. for […]. The reaction was stopped by the addition of SDS-PAGE loading buffer, and the samples were boiled for 10 min. Samples were run on a gel and transferred. The same procedure as described for the western blots was used, starting from the second blocking step. Blots were then probed with HRP-conjugated streptavidin (Pierce). […]"}},
  "data": [
    {"smiles": "CC(=O)NC1C(OC(C)=O)SC(COC(C)=O)C(OC(C)=O)C1OC(C)=O", "note": "[Compound 9, N-Acetyl-1,3,4,6-tetra-O-acetyl-α-D-5-thio-glucosamine]", "values": [
      {"measurement": "growth rate", "setting": "[1]; EMEG32 heterozygotes", "value": "indistinguishable but were both lower than vehicle treated cells"},
      {"measurement": "O-GlcNAc levels at last time point of growth curve", "setting": "[1]; EMEG heterozygous cells", "value": "O-GlcNAc levels are still significantly decreased in cells treated with Ac-5SGlcNAc"},
      {"measurement": "toxicity to cells", "setting": "[2]; 0-250 μM, unstimulated or stimulated", "value": "not toxic to either unstimulated or stimulated cells"},
      {"measurement": "proliferation of cytokine-stimulated cells", "setting": "[2]; 50 μM and higher, IL-2 and Resiquimod stimulation", "value": "the proliferation that was obvious in untreated stimulated cells was absent"},
      {"measurement": "OGA levels", "setting": "[3]", "value": "compensatory decrease in OGA levels"},
      {"measurement": "O-GlcNAc modification of immunoprecipitated nup62", "setting": "[4]", "value": "shows almost no modification"}
    ]}
  ]
}
